Assay results published in PubChem BioAssay (NCI).
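All cell lines were grown in 96-well plates and treated with compound for 48 hours. GI50 = concentration required for 50% inhibition of growth. TGI: total growth inhibition.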

Tests used:
Assay in all cases: DTP human tumour cell line panel, 48 h; in the data active means GI50 below about 0.43 µM; inactive means the rest
[1] = tested on: SK-MEL-2 melanoma
[2] = tested on: HL-60(TB) leukemia
[3] = tested on: PC-3 prostate
[4] = tested on: NCI-H460 lung
[5] = tested on: MOLT-4 leukemia
[6] = tested on: LOX IMVI melanoma
[7] = tested on: OVCAR-3 ovarian
[8] = tested on: K-562 leukemia
[9] = tested on: NCI-H226 lung
[10] = tested on: SK-MEL-28 melanoma

O=C(CC(O)c1ccncc1)c1ccccc1 (centres undefined)
89.2 µM: TGI [4]
79.4 µM: TGI [5]
49.5 µM: TGI [6]
inactive: GI50 [1] 21.2 µM | GI50 [2] 17.6 µM | GI50 [3] 23.3 µM | GI50 [4] 27.1 µM | GI50 [5] 22.2 µM | GI50 [6] 20.9 µM | GI50 [7] 30.5 µM | GI50 [8] 23.9 µM | GI50 [9] 33.9 µM | GI50 [10] 21.9 µM
59.6 µM: TGI [2]
> 100 µM: TGI [3] | TGI [7] | TGI [8] | TGI [9]
55.3 µM: TGI [1]
70.4 µM: TGI [10]

COc1cc(C(=O)N2CCN(c3ccccc3OC)CC2)c(N)cc1OCc1ccccc1
66.8 µM: TGI [1]
> 100 µM: TGI [3] | TGI [4] | TGI [8] | TGI [9] | TGI [10]
53.6 µM: TGI [5]
48.8 µM: TGI [2]
inactive: GI50 [1] 28.2 µM | GI50 [2] 25.5 µM | GI50 [3] 23.8 µM | GI50 [4] 33.1 µM | GI50 [5] 21.5 µM | GI50 [6] 27.2 µM | GI50 [7] 22.1 µM | GI50 [8] 27.2 µM | GI50 [9] 38.3 µM | GI50 [10] 43.4 µM
58.8 µM: TGI [7]
71.3 µM: TGI [6]

NC(N)=N/N=C(/c1ccccc1)c1ccc(Cl)cc1
44 µM: TGI [4]
12.1 µM: TGI [7]
62.2 µM: TGI [2]
> 100 µM: TGI [1] | TGI [3] | TGI [5] | TGI [6] | TGI [8] | TGI [9] | TGI [10]
inactive: GI50 [1] > 100 µM | GI50 [2] 1.34 µM | GI50 [3] 3.84 µM | GI50 [4] 9.93 µM | GI50 [5] 5.45 µM | GI50 [6] 18.4 µM | GI50 [7] 2.88 µM | GI50 [8] 2.95 µM | GI50 [9] 29.3 µM | GI50 [10] 8.03 µM

N#CCC12CC=CCC1=C(O)C(=O)c1ccc(O)cc12 (centres undefined)
> 100 µM: TGI [1] | TGI [2] | TGI [3] | TGI [4] | TGI [5] | TGI [6] | TGI [7] | TGI [8] | TGI [9] | TGI [10]

Cn1c(=O)c2[nH]c(C3CC(=O)CC(c4nc5c([nH]4)c(=O)n(C)c(=O)n5C)N3)nc2n(C)c1=O (centres undefined)
> 100 µM: TGI [1] | TGI [2] | TGI [3] | TGI [4] | TGI [5] | TGI [6] | TGI [7] | TGI [8] | TGI [9] | TGI [10]

CC1(C)N=C(N)N=C(N)N1c1ccc(OCC(=O)N2CCOCC2)c(Cl)c1
> 100 µM: TGI [1] | TGI [2] | TGI [3] | TGI [4] | TGI [5] | TGI [6] | TGI [7] | TGI [8] | TGI [9] | TGI [10]
active: GI50 [4] 0.362 µM
inactive: GI50 [1] > 100 µM | GI50 [2] 0.981 µM | GI50 [3] 0.531 µM | GI50 [5] 6.31 µM | GI50 [6] 0.545 µM | GI50 [7] 5.63 µM | GI50 [8] 0.854 µM | GI50 [9] 33.5 µM | GI50 [10] 30.1 µM

CC(C)(C)c1cn2cccc(C(=O)N3CCN(CC(=O)Nc4ccc(Cl)cc4C(=O)c4ccccc4Cl)CC3)c2n1
23 µM: TGI [4]
15.5 µM: TGI [7]
6.88 µM: TGI [3]
> 100 µM: TGI [2] | TGI [5] | TGI [8]
37 µM: TGI [9]
23.9 µM: TGI [6]
33.6 µM: TGI [1]
28.8 µM: TGI [10]
inactive: GI50 [1] 5 µM | GI50 [2] > 100 µM | GI50 [3] 2.35 µM | GI50 [4] 5.79 µM | GI50 [5] 5.52 µM | GI50 [6] 11 µM | GI50 [7] 3.71 µM | GI50 [8] > 100 µM | GI50 [9] 11.3 µM | GI50 [10] 11 µM

COc1cc(Nc2ncc3c(C)nc(-c4cccc(Oc5ccccc5)c4)n3n2)cc(OC)c1OC
14.1 µM: TGI [2]
9.71 µM: TGI [1]
> 15.5 µM: TGI [6]
> 25 µM: TGI [4] | TGI [8] | TGI [9] | TGI [10]
11.2 µM: TGI [7]
> 21.3 µM: TGI [5]
inactive: GI50 [1] 2.58 µM | GI50 [2] 6.01 µM | GI50 [3] 5.1 µM | GI50 [4] 3.21 µM | GI50 [5] 7.46 µM | GI50 [6] 3.57 µM | GI50 [7] 4.64 µM | GI50 [8] 10 µM | GI50 [9] 5.93 µM | GI50 [10] 7.63 µM
24.6 µM: TGI [3]

N#Cc1c(NC(=O)c2cccc3ccccc23)sc2c1CCCC2
> 25 µM: TGI [1] | TGI [3] | TGI [4] | TGI [5] | TGI [6] | TGI [8] | TGI [9] | TGI [10]
0.107 µM: TGI [7]
active: GI50 [1] 0.137 µM | GI50 [2] 0.0545 µM | GI50 [3] 0.079 µM | GI50 [4] 0.0785 µM | GI50 [5] 0.102 µM | GI50 [6] 0.0625 µM | GI50 [7] 0.0417 µM | GI50 [8] 0.0115 µM | GI50 [9] 0.195 µM | GI50 [10] 0.0401 µM

O=c1oc2ccc(F)cc2c(=O)n1-c1ccc(Cl)cc1F
12.2 µM: TGI [4]
2.53 µM: TGI [1]
2.92 µM: TGI [10]
5.27 µM: TGI [5]
2.73 µM: TGI [2]
inactive: GI50 [2] 0.578 µM | GI50 [3] 1.5 µM | GI50 [4] 0.619 µM | GI50 [5] 2 µM | GI50 [6] 0.527 µM | GI50 [7] 0.55 µM | GI50 [8] 0.509 µM | GI50 [9] 1.22 µM | GI50 [10] 0.456 µM
active: GI50 [1] 0.42 µM
6.32 µM: TGI [3]
> 100 µM: TGI [8]
6.97 µM: TGI [6]
4.91 µM: TGI [9]
12.5 µM: TGI [7]

COc1cc(-n2cc(-c3ccc(F)cc3)[nH]c2=S)cc(OC)c1OC
inactive: GI50 [1] > 100 µM | GI50 [2] > 100 µM | GI50 [3] 80.1 µM | GI50 [4] > 100 µM | GI50 [5] > 100 µM | GI50 [6] > 100 µM | GI50 [7] > 100 µM | GI50 [8] > 100 µM | GI50 [9] > 100 µM | GI50 [10] > 100 µM
> 100 µM: TGI [1] | TGI [2] | TGI [3] | TGI [4] | TGI [5] | TGI [6] | TGI [7] | TGI [8] | TGI [9] | TGI [10]
